What was measured:
[1] = system: C. elegans; assay: C. elegans nematode activity assay, 2-fold dilutions from 140 μM, visual evaluation at Day 4 (Example 3); type: in vivo, Caenorhabditis elegans
Procedure: The eggs were allowed to hatch, and the L1 larvae collected. See The Nematode Caenorhabditis elegans (1988) Cold Spring Harbor Laboratory Press. Using a Matrix Programmable Pipette, the L1s were distributed into 96-well tissue culture plates, 20 L1 in 50 μl NGM per well. Antibiotic/Antimyoticwas added to each well, and 1% by weight E. coli strain HB101. The subject anthelmintic compounds were stored at 5 mM in 100% DMSO. 0.7 μl of compounds 1-31 were added to the left-most column of wells to yield a final concentration of 70 μM in 1.4% DMSO, with 1.4% DMSO only as the control. The compounds were then subjected to 5 more 3-fold dilutions from left to right to yield 6 column concentrations of 70 μM, 23.3 μM, 7.8 μM, 2.6 μM, 0.9 μM, and 0.3 μM. Plates were stored in air-tight Rubbermaid plastic boxes at 20° C. The nematodes had cleared all control wells by day 4, and nematode viability was scored by visual examination under a 100× dissecting microsope on day 5. A visual viability scoring system was used as follows:
The C. elegans nematode activity assay for anthelmintic compounds 32-46 was similar to that described in Example 2 above, except for the following noted differences. The compound concentrations were adjusted to 140 μM and subjected to 2-fold dilutions to yield 140 μM, 70 μM, 35 μM, 17.5 μM, 8.8 μM, 4.4 μM, 2.2 μM, and 1.09 μM.

[2] = system: Meloidogyne incognita; settings: cited from earlier work
[3] = system: Caenorhabditis elegans; assay: C. elegans L1 nematicidal dose response in 96-well plates, 5 day visual score (Example 2; same procedure for Example 7, Table 3); type: in vivo; parameters: key to 5 Day Visual Score V1 / 5 Day Visual Score V2 / 5 Day Visual Score V3 / 5 Day Visual Score V4 / 5 Day Visual Score V6 / 5 Day Visual Score V5 / Initial HTS Run Visual Score / Follow-up HTS Run Visual Score: Dead: only stiff L1s (no movement); Dead (L4): worms are dead, but at a later larval stage; majority of worms are L1 (based on size) worms move when plate is tapped; majority of worms are L2 (based on size); majority of worms are L3 (based on size); majority of worms are L4 (based on size); AD: majority of worms are adult; #AD: 5 adult worms or less; B!: sterile (0-25 progeny); B: low broodsize (25-100 progeny); ˜B: moderate broodsize (100-250 progeny); <: reduced broodsize (250-500 progeny); OK: no effect (˜1000+ progeny)
In short: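 L1 larvae, 20 per well in NGM with 1% E. coli HB101 and antibiotic/antimycotic, exposed to six 3-fold dilutions from 70 μM down to 0.3 μM (1.4% DMSO at top). Held at 20° C; viability scored visually under 100× dissecting microscope on day 5.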

[4] = 2.6 μM, C. elegans L1, scored day 5
[5] = 7.8 μM, C. elegans L1, scored day 5
[6] = 23.3 μM, C. elegans L1, scored day 5
[7] = 70 μM, C. elegans L1, scored day 5
[8] = dose response, dilution V2, day 5
[9] = dose response, dilution V3, day 5
[10] = dose response, dilution V4, day 5
[11] = dose response, dilution V5, day 5
[12] = dose response, dilution V6, day 5
[13] = dose response, dilution V1, day 5
[14] = 0.3 μM, C. elegans L1, scored day 5
[15] = 0.9 μM, C. elegans L1, scored day 5
[16] = dose response, dilution V1, 5 day
[17] = dose response, dilution V2, 5 day
[18] = dose response, dilution V3, 5 day
[19] = dose response, dilution V4, 5 day
[20] = dose response, dilution V5, 5 day
[21] = dose response, dilution V6, 5 day

Row | Structure (SMILES) | Follow-up HTS Run % Run [3] [%] | Follow-up HTS Run Visual Score [3] | Follow-up HTS Run mOD [3] [mOD] | Initial HTS Run % Run [3] [%] | Initial HTS Run Visual Score [3] | Initial HTS Run mOD [3] [mOD] | 5 Day Visual Score V3 [3, 9] | 5 Day Visual Score V6 [3, 12] | other results
1 | NCc1ccc(-c2ccccc2)cc1 [AKC-138] | – | – | – | – | – | – | – | – | visual evaluation of viability ([1]; 8.8 μM): B (low broodsize (25-100 progeny))
2 | CC[C@H](C)[C@H]1O[C@]2(CC(O)[C@@H]1C)C[C@@H]1C[C@@H](C/C=C(\C)[C@@H](OC3CC(OC)C(OC4CC(OC)C(O)C(C)O4)C(C)O3)[C@@H](C)/C=C/C=C3\CO[C@@H]4[C@H](O)C(C)=C[C@@H](C(=O)O1)[C@]34O)O2 (some centres unmarked) [Avermectin B2a] | – | – | – | – | – | – | – | – | activity against the root-knot nematode [2]: active
3 | CCCCCCCCOc1ccc2nc(CCSC)[nH]c2c1 [AKC-144] | – | – | – | – | – | – | – | – | visual evaluation of viability ([1]; 1.09 μM): OK (no effect (˜1000+ progeny)); visual evaluation of viability ([1]; 2.2 μM): OK (no effect (˜1000+ progeny)); visual evaluation of viability ([1]; 4.4 μM): OK (no effect (˜1000+ progeny)); visual evaluation of viability ([1]; 8.8 μM): OK (no effect (˜1000+ progeny)); visual evaluation of viability ([1]; 17.5 μM): ˜B (moderate broodsize (100-250 progeny)); visual evaluation of viability ([1]; 35 μM): B (low broodsize (25-100 progeny)); visual evaluation of viability ([1]; 70 μM): L4/AD/B
4 | CCOc1ccccc1C1=NOC(c2cccc3ccccc23)C1C(=O)NCc1ccc(OC(F)(F)F)cc1 (centres unmarked) [AKC 105] | – | – | – | – | – | – | – | – | 5 Day Visual Score V4 [3, 4]: L2/Dead(L; 5 Day Visual Score V3 [3, 5]: L2/Dead(L3); 5 Day Visual Score V2 [3, 6]: L2/Dead(L3); 5 Day Visual Score V1 [3, 7]: L2/Dead(L3)
5 | C=CCN(CC=C)c1nc(NCc2ccc(F)cc2F)ns1 [compound 293] | 125 | L4/AD/B! | 201 | 108 | L4 | 119 | OK (no effect (˜1000+ progeny)) | OK (no effect (˜1000+ progeny)) | 5 Day Visual Score V2 [3, 8]: < (reduced broodsize (250-500 progeny)); 5 Day Visual Score V4 [3, 10]: OK (no effect (˜1000+ progeny)); 5 Day Visual Score V5 [3, 11]: OK (no effect (˜1000+ progeny))
6 | CCCCC(CC)CN(CC(CC)CCCC)c1nc(NCc2ccc(C(F)(F)F)cc2)ns1 (centres unmarked) [compound 307] | 110 | B! (sterile (0-25 progeny)) | 177 | 100 | L4/AD/B | 110 | OK (no effect (˜1000+ progeny)) | OK (no effect (˜1000+ progeny)) | 5 Day Visual Score V1 [3, 13]: Dead; 5 Day Visual Score V4 [3, 10]: OK (no effect (˜1000+ progeny)); 5 Day Visual Score V5 [3, 11]: OK (no effect (˜1000+ progeny))
7 | CC(C)(C)C1=NOC(c2ccc(-c3ccccc3)cc2)C1C(=O)NCCc1ccccc1F (centres unmarked) [AKC 120] | – | – | – | – | – | – | – | – | 5 Day Visual Score V6 [3, 14]: OK (no effect (˜1000+ progeny)); 5 Day Visual Score V5 [3, 15]: #AD/˜B; 5 Day Visual Score V3 [3, 5]: L1; 5 Day Visual Score V1 [3, 7]: L1
8 | Cc1ccc(C(CC(=O)c2ccc(C)c(C)c2)Nc2cc(Br)c(C)c(Br)c2)o1 (centres unmarked) [AKC 130] | – | – | – | – | – | – | – | – | 5 Day Visual Score V5 [3, 15]: OK (no effect (˜1000+ progeny)); 5 Day Visual Score V4 [3, 4]: #AD/˜B; 5 Day Visual Score V2 [3, 6]: #AD/-B; 5 Day Visual Score V1 [3, 7]: Dead
9 | CCCCN(CC)c1nc(NC2CCCCCCCCCCC2)ns1 [compound 332] | 75 | Dead | 121 | 92 | Dead | 101 | – | – | 5 Day Visual Score V1 [3, 16]: Dead; 5 Day Visual Score V2 [3, 17]: Dead; 5 Day Visual Score V3 [3, 18]: L1; 5 Day Visual Score V4 [3, 19]: OK (no effect (˜1000+ progeny)); 5 Day Visual Score V5 [3, 20]: OK (no effect (˜1000+ progeny)); 5 Day Visual Score V6 [3, 21]: OK (no effect (˜1000+ progeny))
10 | CCN(Cc1ccccc1)c1nc(NCc2ccccc2C(F)(F)F)ns1 [compound 320] | 118 | – | 190 | 102 | – | 112 | – | – | 5 Day Visual Score V1 [3, 16]: L4#AD/B!; 5 Day Visual Score V2 [3, 17]: < (reduced broodsize (250-500 progeny)); 5 Day Visual Score V3 [3, 18]: OK (no effect (˜1000+ progeny)); 5 Day Visual Score V4 [3, 19]: OK (no effect (˜1000+ progeny)); 5 Day Visual Score V5 [3, 20]: OK (no effect (˜1000+ progeny)); 5 Day Visual Score V6 [3, 21]: OK (no effect (˜1000+ progeny))
11 | CCCCC(CC)CN(CC(CC)CCCC)c1nc(NC2CCCCCCCCCCC2)ns1 (centres unmarked) [compound 331] | 85 | Dead | 137 | 95 | Dead | 104 | – | – | 5 Day Visual Score V1 [3, 16]: Dead; 5 Day Visual Score V2 [3, 17]: Dead; 5 Day Visual Score V3 [3, 18]: Dead; 5 Day Visual Score V4 [3, 19]: OK (no effect (˜1000+ progeny)); 5 Day Visual Score V5 [3, 20]: OK (no effect (˜1000+ progeny)); 5 Day Visual Score V6 [3, 21]: OK (no effect (˜1000+ progeny))
12 | O=C(NCCc1ccc(F)cc1)C1C(c2ccccc2Cl)=NOC1c1ccc(-c2ccccc2)cc1 (centres unmarked) [AKC 119] | – | – | – | – | – | – | – | – | 5 Day Visual Score V6 [3, 14]: < (reduced broodsize (250-500 progeny))
13 | CN(CCO)c1nc(NCc2ccc(C(F)(F)F)cc2)ns1 [compound 256] | 112 | L2 - Dead L3 | 180 | 106 | L2 - (Dead L3) | 117 | OK (no effect (˜1000+ progeny)) | OK (no effect (˜1000+ progeny)) | 5 Day Visual Score V1 [3, 13]: Dead; 5 Day Visual Score V4 [3, 10]: OK (no effect (˜1000+ progeny)); 5 Day Visual Score V5 [3, 11]: OK (no effect (˜1000+ progeny))
14 | CN(CCc1ccccc1)c1nc(NC2CCCCCCCCCCC2)ns1 [AKC 335] | 82 | Dead | 132 | 104 | Dead | 114 | Dead | OK (no effect (˜1000+ progeny)) | 5 Day Visual Score V1 [3, 13]: Dead; 5 Day Visual Score V2 [3, 8]: Dead
15 | CC1CC(C)CN(c2nc(NCc3ccc(C(F)(F)F)cc3)ns2)C1 (centres unmarked) [compound 248] | 112 | L3/L4/AD/B! | 181 | 99 | L3/L4/AD/B | 109 | < (reduced broodsize (250-500 progeny)) | OK (no effect (˜1000+ progeny)) | 5 Day Visual Score V2 [3, 8]: ˜B (moderate broodsize (100-250 progeny)); 5 Day Visual Score V4 [3, 10]: OK (no effect (˜1000+ progeny)); 5 Day Visual Score V5 [3, 11]: OK (no effect (˜1000+ progeny))
